Reference: US4393219A, “Salt of chlorhexidine” (Maruishi Pharmaceutical Co., Ltd., priority 1981, dated 1983)
In brackets after ≈: the same amount, converted by molar mass. Structures can show the parent of a compound that is named as a salt. Where two headings read alike, the source gives them in different places. One block for each molecule: values may come before it.

Assays:
[1] = prior art, cited from earlier work; for solubility in water and alcohols: water and alcohols such as methanol and ethanol, in words
[2] = test system: Serratia marcescens IFO 12648; test: Minimum inhibitory concentration, Serratia marcescens; format: cell-based; conditions: S. marcescens, trypticase soy broth (BBL), heart infusion agar; for MIC: Serratia marcescens, IFO12648
Procedure: Serratia marcescens IFO 12648
(§1) The experiment was conducted according to the guide method which has been once revised and re-published by Japan Chemotherapy Association by using trypticase soy broth (BBL) as an incubation medium and heart infusion agar as a medium for determining susceptibility.

[3] = test system: Acinetobacter anitratus RIMD 0102002; test: Minimum inhibitory concentration, Acinetobacter anitratus; format: cell-based; conditions: trypticase soy broth (BBL), heart infusion agar; for MIC: Acinetobacter calcoaceticus, RIMD0102002, A. anitratus
Procedure: Acinetobacter anitratus RIMD 0102002
as §1

[4] = test system: Pseudomonas aeruginosa IID 1117; test: Minimum inhibitory concentration, Pseudomonas aeruginosa; format: cell-based; conditions: trypticase soy broth (BBL), heart infusion agar; for Minimum inhibitory concentration: Ps. aeruginosa
Procedure: Pseudomonas aeruginosa IID 1117
as §1

[5] = test system: Proteus vulgaris IFO 3045; test: Minimum inhibitory concentration, Proteus vulgaris; format: cell-based; conditions: trypticase soy broth (BBL), heart infusion agar; for MIC: Proteus vulgaris, IFO3045, P. vulgaris
Procedure: Proteus vulgaris IFO 3045
as §1

[6] = test system: Flavobacterium menigosepticum RIMD 0614002; test: Minimum inhibitory concentration, Flavobacterium menigosepticum; format: cell-based; conditions: trypticase soy broth (BBL), heart infusion agar; for Minimum inhibitory concentration: F. menigosepticum
Procedure: as §1, with “(1) Strains employed: Flavobacterium menigosepticum RIMD 0614002 (2) Method: The” for “The”

Solubility = format: physicochemical; conditions: in words
[7] = test system: A. anitratus, F. menigosepticum, P. vulgaris, Ps. aeruginosa, S. marcescens; test: Antibiotic activity compared with chlorhexidine digluconate (five strains together); format: cell-based
Procedure: as §1

LD50 in mice = conditions: mouse, in vivo, route not stated

Structure (SMILES): [H]/N=C(\N/C(=N/[H])NCCCCCCNC(=N)NC(=N)Nc1ccc(Cl)cc1)Nc1ccc(Cl)cc1 [Chlorhexidine diacetate]
solubility in water and alcohols [1]: sparingly soluble | solubility in water [1]: 1 g per 10,000 ml

Structure (SMILES): [H]/N=C(\N/C(=N/[H])NCCCCCCNC(=N)NC(=N)Nc1ccc(Cl)cc1)Nc1ccc(Cl)cc1 [Chlorhexidine digluconate, chlorhexidine digluconate]
MIC [2]: 125 µg/mL | MIC [3]: 62.5 µg/mL | Minimum inhibitory concentration [4]: 31.3 µg/mL | MIC [5]: 250 µg/mL | solubility in water and alcohols [1]: superior solubility in water and alcohols | Minimum inhibitory concentration [6]: 125 µg/mL

Structure (SMILES): [H]/N=C(\N/C(=N/[H])NCCCCCCNC(=N)NC(=N)Nc1ccc(Cl)cc1)Nc1ccc(Cl)cc1 [Chlorhexidine dihydrochloride]
solubility in water and alcohols [1]: sparingly soluble | solubility in water [1]: 1 g per 10,000 ml

Structure (SMILES): [H]/N=C(\N/C(=N/[H])NCCCCCCNC(=N)NC(=N)Nc1ccc(Cl)cc1)Nc1ccc(Cl)cc1 [Chlorhexidine disulfate]
solubility in water and alcohols [1]: sparingly soluble | solubility in water [1]: 1 g per 10,000 ml

MIC [2]: 4000 µg/mL (≈ 31 mM) | MIC [3]: 4000 µg/mL (≈ 31 mM) | MIC ([4]; Pseudomonas aeruginosa, IID1117, Ps. aeruginosa): 4000 µg/mL (≈ 31 mM) | MIC [5]: 4000 µg/mL (≈ 31 mM) | MIC ([6]; Flavobacterium, RIMD0614002, F. menigosepticum): 4000 µg/mL (≈ 31 mM)
Structure (SMILES): O=C1CC[C@@H](C(=O)O)N1 [Pyrrolidone-carboxylic acid, 2-Pyrrolidone-5-carboxylic acid]

Structure (SMILES): [H]/N=C(\N/C(=N/[H])NCCCCCCNC(=N)NC(=N)Nc1ccc(Cl)cc1)Nc1ccc(Cl)cc1 [Salt of this invention, chlorhexidine di-2-pyrrolidone-5-carboxylate]
Minimum inhibitory concentration [2]: 125 µg/mL | Minimum inhibitory concentration ([3]; A. anitratus): 31.3 µg/mL | solubility in acetone, chloroform and ether (Solubility; acetone, chloroform and ether): insoluble in acetone, chloroform and ether | solubility in water and alcohols (Solubility; water and alcohols): soluble in water and alcohols | Minimum inhibitory concentration [4]: 15.6 µg/mL | antibiotic activity [7]: more potent antibiotic activity than the known chlorhexidine digluconate | Minimum inhibitory concentration ([5]; P. vulgaris): 125 µg/mL | LD50 (LD50 in mice): ~2000 mg/kg | Minimum inhibitory concentration [6]: 31.3 µg/mL
